From article PMC9122913 (Nature Communications, 2022)

Target: T1, Cyclin-dependent kinase 2 (CDK2) (Homo sapiens, UniProt P24941)
T1 construct: Full-length human CDK2, GST-N-terminal tagged fusion protein
Experiment: pulldown of purified GST-CDK2 with HHT-conjugated beads (free HHT competes in lysate pulldown); DARTS in HEK293 lysate; CDK2/Cyclin A2 kinase assay inhibited at […] HHT
Format: binding
Text: Thus, hydrogen-bonds with T47, R50 and R150 appear critical

## COC(=O)C[C@](O)(CCCC(C)(C)O)C(=O)O[C@@H]1C(OC)=C[C@]23CCCN2CCc2cc4c(cc2[C@H]13)OCO4 [HHT, homoharringtonine]
  pulldown of purified GST-CDK2 with HHT-conjugated beads (free HHT competes in ly): interaction between HHT and CDK2-3As was abolished (Fig. 1G). Thus, hydrogen-bonds with T47, R50 and R150 appear critical
